This is an account of results in US20260216196A1, “IMIDAZO[1,2-A]PYRIDINE AND IMIDAZO[1,2-A]PYRAZINE DERIVATIVES AS MLLT1 AND MLLT3 INHIBITORS” (DARK BLUE THERAPEUTICS LTD., priority 2022, published 2026).

One test addresses MLLT1 (Homo sapiens, UniProt Q03111). Description: biochemical. To be noted: MLLT1 assay IC50 (nM), HTRF, 6His tagged MLLT1, biotinylated H3K9cro peptide; compound 20 μM to 20 nM, 11 data points in duplicate.
The next test has as its target MLLT3 (Homo sapiens, UniProt P42568). Description: HTRF IC50 determination assay, MLLT3 / H3K9cro peptide displacement. The following applies: MLLT3 assay IC50 (nM), 6His tagged MLLT3, biotinylated H3K9cro peptide, compound 20 μM to 20 nM, 11 data points in duplicate.

Bounds are passed on as bounds.

Sequence of MLLT1 (Q03111 whole entry): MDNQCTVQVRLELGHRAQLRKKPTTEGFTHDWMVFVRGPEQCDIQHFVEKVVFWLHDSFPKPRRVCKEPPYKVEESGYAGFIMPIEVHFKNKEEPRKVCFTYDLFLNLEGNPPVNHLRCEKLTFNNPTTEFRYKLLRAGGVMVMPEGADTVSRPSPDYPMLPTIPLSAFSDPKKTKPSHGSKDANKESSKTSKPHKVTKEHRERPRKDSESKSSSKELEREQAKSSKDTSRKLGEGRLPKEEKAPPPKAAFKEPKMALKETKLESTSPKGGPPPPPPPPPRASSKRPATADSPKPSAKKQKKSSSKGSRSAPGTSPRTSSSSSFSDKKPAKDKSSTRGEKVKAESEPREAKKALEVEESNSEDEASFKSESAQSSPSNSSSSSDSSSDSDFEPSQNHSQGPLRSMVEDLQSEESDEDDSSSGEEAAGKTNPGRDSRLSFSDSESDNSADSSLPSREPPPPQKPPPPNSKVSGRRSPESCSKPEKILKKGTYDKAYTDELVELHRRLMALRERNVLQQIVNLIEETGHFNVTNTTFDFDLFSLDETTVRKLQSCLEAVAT
Sequence of MLLT3 (P42568 whole entry): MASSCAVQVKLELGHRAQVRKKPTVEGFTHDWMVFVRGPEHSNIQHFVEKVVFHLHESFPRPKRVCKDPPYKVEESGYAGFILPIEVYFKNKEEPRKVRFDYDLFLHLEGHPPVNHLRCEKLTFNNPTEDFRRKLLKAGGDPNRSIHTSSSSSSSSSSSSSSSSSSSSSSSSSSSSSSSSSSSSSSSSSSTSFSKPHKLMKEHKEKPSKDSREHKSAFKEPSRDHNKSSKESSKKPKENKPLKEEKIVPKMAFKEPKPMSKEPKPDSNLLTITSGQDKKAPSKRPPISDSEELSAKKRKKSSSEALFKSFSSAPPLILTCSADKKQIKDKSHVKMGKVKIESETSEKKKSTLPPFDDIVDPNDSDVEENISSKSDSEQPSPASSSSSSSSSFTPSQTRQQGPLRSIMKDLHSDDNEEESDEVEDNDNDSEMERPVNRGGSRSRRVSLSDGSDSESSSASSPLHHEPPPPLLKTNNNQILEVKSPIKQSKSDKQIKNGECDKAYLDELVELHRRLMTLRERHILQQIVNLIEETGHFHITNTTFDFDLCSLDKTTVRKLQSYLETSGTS

Consider `CN1C[C@@H](F)C[C@@H]1c1cn2cc(NC(=O)c3ccc4c(cnn4C)c3)ncc2n1` [Example 83, N-{2-[(2R,4S)-4-fluoro-1-methylpyrrolidin-2-yl]imidazo[1,2-a]pyrazin-6-yl}-1-methylindazole-5-carboxamide], for which the IC50 on MLLT1 and on MLLT3 was 150 to 1500 nM each time.

As for `Cc1nn(C)c2cc(C(=O)Nc3cn4cc([C@H]5CCCN5C)nc4cn3)c(F)cc12` [Example 73, 5-fluoro-1,3-dimethyl-N-{2-[(2R)-1-methylpyrrolidin-2-yl]imidazo[1,2-a]pyrazin-6-yl}-1H-indazole-6-carboxamide], the IC50 on MLLT1 and at MLLT3 was 150 to 1500 nM each time.

Take `CN1CCCC1c1cn2cc(NC(=O)c3ccc4ncoc4c3)ccc2n1` (racemic) [Example 37, rac-N-[2-(1-methylpyrrolidin-2-yl)imidazo[1,2-a]pyridin-6-yl]-1,3-benzoxazole-6-carboxamide]: the IC50 lay within 150 to 1500 nM against MLLT1 and 1500 to 20000 nM at MLLT3.

For the molecule `Cc1nc2ccc(C(=O)Nc3ccc4nc(C5CCCN5C)cn4c3)cc2nc1C` (racemic) [Example 11, rac-2,3-dimethyl-N-[2-(1-methylpyrrolidin-2-yl)imidazo[1,2-a]pyridin-6-yl]quinoxaline-6-carboxamide], the IC50 against MLLT1 and at MLLT3 was 150 to 1500 nM in each case.

On to `CN1CCC[C@@H]1c1cn2cc(NC(=O)c3ccc4c(C5CC5)nn(C)c4c3)ncc2n1` [Example 71, 3-cyclopropyl-1-methyl-N-{2-[(2R)-1-methylpyrrolidin-2-yl]imidazo[1,2-a]pyrazin-6-yl}-1H-indazole-6-carboxamide], for which the IC50 against MLLT1 and on MLLT3 was 150 to 1500 nM in each case.

As for `Cc1nn(C)c2nc(C(=O)Nc3ccc4nc(C5CCCN5C)cn4c3)ccc12` (racemic) [Example 31, rac-1,3-dimethyl-N-[2-(1-methylpyrrolidin-2-yl)imidazo[1,2-a]pyridin-6-yl]-1H-pyrazolo[3,4-b]pyridine-6-carboxamide], the IC50 against MLLT1 and at MLLT3 was 1500 to 20000 nM each time.

Consider `CN1CCCC1c1cn2cc(NC(=O)c3ccc(-c4cncs4)cc3F)ccc2n1` (single isomer, unassigned) [Example 7], for which the IC50 on MLLT1 and on MLLT3 was 1500 to 20000 nM each time.

For `COC1CC(c2cn3cc(NC(=O)c4ccc5c(cnn5C)c4)ccc3n2)N(C)C1` (racemic) [Example 65, rac-N-[2-(4-methoxy-1-methylpyrrolidin-2-yl)imidazo[1,2-a]pyridin-6-yl]-1-methyl-1H-indazole-5-carboxamide], the results for the IC50 on MLLT1 and at MLLT3 were 150 to 1500 nM and 1500 to 20000 nM, respectively.

As for `COc1ccc2c(C(=O)Nc3ccc4nc(C5CCCN5C)cn4c3)c[nH]c2c1` (racemic) [Example 39, rac-6-methoxy-N-[2-(1-methylpyrrolidin-2-yl)imidazo[1,2-a]pyridin-6-yl]-1H-indole-3-carboxamide], the IC50 on MLLT1 is 1500 to 20000 nM; on MLLT3, over 20000 nM.

In the case of `CN1CCOCC1c1cn2cc(NC(=O)c3ccc4c(cnn4C)c3)ccc2n1` (racemic) [Example 2, rac-1-methyl-N-[2-(4-methylmorpholin-3-yl)imidazo[1,2-a]pyridin-6-yl]indazole-5-carboxamide], the IC50 on MLLT1 and at MLLT3 was 1500 to 20000 nM throughout.

Take `CN1CC2(CCCC2)CC1c1cn2cc(NC(=O)c3ccc4c(cnn4C)c3)ccc2n1` (racemic) [Example 3, rac-1-methyl-N-(2-{2-methyl-2-azaspiro[4.4]nonan-3-yl}imidazo[1,2-a]pyridin-6-yl)indazole-5-carboxamide]: the IC50 at MLLT1 and at MLLT3 was 150 to 1500 nM each time.

As to `CN1CCCC1c1cn2cc(NC(=O)c3ccc4cncnc4c3)ccc2n1` (racemic) [Example 47, rac-N-[2-(1-methylpyrrolidin-2-yl)imidazo[1,2-a]pyridin-6-yl]quinazoline-7-carboxamide], the IC50 was 150 to 1500 nM on MLLT1 and 1500 to 20000 nM at MLLT3.

`Cc1c(C(=O)Nc2ccc3nc(C4CCCN4C)cn3c2)sc2nc[nH]c(=O)c12` (racemic) [Example 44, rac-5-methyl-N-[2-(1-methylpyrrolidin-2-yl)imidazo[1,2-a]pyridin-6-yl]-4-oxo-3H,4H-thieno[2,3-d]pyrimidine-6-carboxamide]: the IC50 at MLLT1 and on MLLT3 was 1500 to 20000 nM each time.

As for `Cc1nc(NC(=O)c2cc3cnn(C)c3cc2Cl)cn2cc([C@H]3CCCN3C)nc12` [Example 92, (R)-6-chloro-1-methyl-N-(8-methyl-2-(1-methylpyrrolidin-2-yl)imidazo[1,2-a]pyrazin-6-yl)-1H-indazole-5-carboxamide], the IC50 against MLLT1 and on MLLT3 was 1500 to 20000 nM each time.

`CN1CCCC1(C)c1cn2cc(NC(=O)c3ccc4c(cnn4C)c3)ccc2n1` (racemic) [Example 4, rac-N-[2-(1,2-dimethylpyrrolidin-2-yl)imidazo[1,2-a]pyridin-6-yl]-1-methylindazole-5-carboxamide]: the results for the IC50 at MLLT1 and at MLLT3 were 150 to 1500 nM and 1500 to 20000 nM, respectively.

Consider `CCN1CCCC1c1cn2cc(NC(=O)c3ccc4c(C)nn(C)c4c3)ncc2n1` (single isomer, unassigned) [Example 87, N-{2-[(rel-2R)-1-ethylpyrrolidin-2-yl]imidazo[1,2-a]pyrazin-6-yl}-1,3-dimethylindazole-6-carboxamide], for which the IC50 at MLLT1 and on MLLT3 was 150 to 1500 nM in each case.

With `CN1CCCC1c1cn2cc(NC(=O)c3ccn4ccnc4c3)ccc2n1` (racemic) [Example 32, rac-N-[2-(1-methylpyrrolidin-2-yl)imidazo[1,2-a]pyridin-6-yl]imidazo[1,2-a]pyridine-7-carboxamide], the values for the IC50 against MLLT1 and at MLLT3 were 150 to 1500 nM and 1500 to 20000 nM, respectively.

For the molecule `Cc1nn(C)c2cc(C(=O)Nc3cn4cc([C@H]5CCCN5)nc4cn3)ccc12` [Example 76, 1,3-dimethyl-N-[2-[(2R)-pyrrolidin-2-yl]imidazo[1,2-a]pyrazin-6-yl]indazole-6-carboxamide], the results for the IC50 at MLLT1 and on MLLT3 were 150 to 1500 nM and 1500 to 20000 nM, respectively.

Consider `CN1CCCC1c1cn2cc(NC(=O)c3cn4ccncc4n3)ccc2n1` (racemic) [Example 34, rac-N-[2-(1-methylpyrrolidin-2-yl)imidazo[1,2-a]pyridin-6-yl]imidazo[1,2-a]pyrazine-2-carboxamide], for which the 50% inhibitory concentration (IC50) on MLLT1 and on MLLT3 was 1500 to 20000 nM each time.

Consider `Cc1nn(C)c2cc(C(=O)Nc3cn4cc(C5CN(C)CCN5C)nc4cn3)ccc12` (single isomer, unassigned) [Example 67], for which the IC50 at MLLT1 and on MLLT3 was 150 to 1500 nM each time.

`CN1CCCC1c1cn2cc(NC(=O)c3ccc(-c4cnn(C)c4)cc3F)ccc2n1` (single isomer, unassigned) [Example 21]: the IC50 at MLLT1 and at MLLT3 was 150 to 1500 nM in each case.

For `CN1CCCC1c1cn2cc(NC(=O)c3ccc(-n4cccn4)cc3)ccc2n1` (racemic) [Example 40, rac-N-[2-(1-methylpyrrolidin-2-yl)imidazo[1,2-a]pyridin-6-yl]-4-(1H-pyrazol-1-yl)benzamide], the IC50 at MLLT1 was in the range of 150 to 1500 nM; at MLLT3, 1500 to 20000 nM.

`Cc1nn(C)c2cc(C(=O)Nc3cn4cc(C5CCCN5C)nc4cc3F)ccc12` (racemic) [Example 57, rac-N-[7-fluoro-2-(1-methylpyrrolidin-2-yl)imidazo[1,2-a]pyridin-6-yl]-1,3-dimethyl-1H-indazole-6-carboxamide]: the figures for the IC50 against MLLT1 and on MLLT3 were 150 to 1500 nM and 1500 to 20000 nM, respectively.

Consider `Cc1noc2cc(C(=O)Nc3ccc4nc(C5CCCN5C)cn4c3)ccc12` (racemic) [Example 29, rac-3-methyl-N-[2-(1-methylpyrrolidin-2-yl)imidazo[1,2-a]pyridin-6-yl]-1,2-benzoxazole-6-carboxamide], for which the IC50 against MLLT1 and at MLLT3 was 1500 to 20000 nM throughout.

As for `CN1CCCC1c1cn2cc(NC(=O)c3cc(-c4cnccn4)ccc3F)ccc2n1` (single isomer, unassigned) [Example 24], the half-inhibitory concentration (IC50) was 150 to 1500 nM on MLLT1 and 1500 to 20000 nM on MLLT3.

In the case of `CN1CCCC1c1cn2cc(NC(=O)c3cc4ccncc4cc3F)ccc2n1` (single isomer, unassigned) [Example 26], the IC50 against MLLT1 and on MLLT3 was 150 to 1500 nM in each case.

On MLLT3, `CCc1nn(C)c2ccc(C(=O)Nc3ccc4nc(C5CCCN5C)cn4c3)cc12` (racemic) [Example 61, rac-3-ethyl-1-methyl-N-[2-(1-methylpyrrolidin-2-yl)imidazo[1,2-a]pyridin-6-yl]-1H-indazole-5-carboxamide] returned an IC50 of 150 to 1500 nM.

Turning to `CCC1CC(c2cn3cc(NC(=O)c4ccc5c(C)nn(C)c5c4)ncc3n2)N(C)C1` (single isomer, unassigned) [Example 78, N-{2-[4-ethyl-1-methylpyrrolidin-2-yl]imidazo[1,2-a]pyrazin-6-yl}-1,3-dimethyl-1H-indazole-6-carboxamide], the half-inhibitory concentration (IC50) on MLLT3 fell in the range of 150 to 1500 nM.

The molecule `CCC1CC(c2cn3cc(NC(=O)c4ccc5c(C)nn(C)c5c4)ncc3n2)N(C)C1` (single isomer, unassigned) [Example 80, N-{2-[4-ethyl-1-methylpyrrolidin-2-yl]imidazo[1,2-a]pyrazin-6-yl}-1,3-dimethyl-1H-indazole-6-carboxamide] yielded an IC50 at MLLT3 of under 150 nM.

For `CCC1CC(c2cn3cc(NC(=O)c4ccc5c(C)nn(C)c5c4)ncc3n2)N(C)C1` (single isomer, unassigned) [Example 79, N-{2-[4-ethyl-1-methylpyrrolidin-2-yl]imidazo[1,2-a]pyrazin-6-yl}-1,3-dimethyl-1H-indazole-6-carboxamide], the IC50 at MLLT3 was under 150 nM.

On to `CCC1CC(c2cn3cc(NC(=O)c4ccc5c(C)nn(C)c5c4)ncc3n2)N(C)C1` (single isomer, unassigned) [Example 77, N-{2-[4-ethyl-1-methylpyrrolidin-2-yl]imidazo[1,2-a]pyrazin-6-yl}-1,3-dimethyl-1H-indazole-6-carboxamide], for which the IC50 on MLLT3 was in the range of 1500 to 20000 nM.
